The values below come from patent publication US12673936B2, “Isoindolinone compounds, and uses thereof” (HANGZHOU GLUBIO PHARMACEUTICAL CO., LTD., priority 2021, dated 2026).

Read-outs that look alike come from different tables or passages of the source.

In data set [1] the test system is MV4-11 cells. The data set can be described thus: MV4-11 cell proliferation assay (CTG cell viability). In kind it is cell-based. The conditions noted are these: 120 hours, read-out: CTG cell viability assay_MV4-11: IC50. How it is done:
MV4-11 Cell Proliferation Assay
The following is an example of an assay that can be used to determine the dose-dependent, anti-proliferative activity of CK1α degradating compounds in an AML cell line such as MV4-11 (ATCC Cat #CRL-9591).
(§1) MV4-11 cells were seeded into a 384-well plate (Cat #3764, Corning) pre-spotted with DMSO or test compounds. Increasing concentrations of test compounds (ranging from 1×10^−3 μM to 10 μM at a 3.162-fold increment in a 10-point dose response assay; ranging from 3.162×10^−4 μM to 10 μM at a 3.162-fold increment in a 11-point dose response assay) or DMSO were dispensed into an empty 384-well plate using an a D300e digital dispenser (Tecan) or an Echo Acoustic Liquid Handler (Beckman Coulter). About 2,000 cells in 50 μL of culture media (IMDM plus 10% heat-inactivated FBS) were seeded per well. Assay plates were incubated at 37° C. with 5% CO2 for 120 hours. After that, 20 μL of the CellTiter-Glo Luminescent Cell Viability Assay Reagent (Cat #G7573, Promega) was added to each well and incubated at room temperature for 30 minutes. Luminescence was then measured with an EnVision plate reader (PerkinElmer) or a PHERAstar plate reader (BMG LABTECH). All cell growth inhibition curves were processed using Collaborative Drug Discovery Vault softwares (Burlingame, CA, www.collaborativedrug.com).
Cell viability reads in compound-treated wells were normalized to that of DMSO control and expressed as Percent of Control (PoC, y). A four Parameter Logistic Model was used to determine the compound's EC50 and DC50, using the following equation:
[formula] • A==lowest cell viability read normalized to DMSO control in response to compound treatment, as determined by curve fit • B=cell viability read in DMSO control • C=EC50 • D=Hill Slope • x=compound concentration • EC50=the concentration of compound when y=(B−A)/2 • IC50=the concentration of the compound when y=50% of DMSO control • y=cell viability read normalized to DMSO control Ymin=(A/B)*100% • Ymin represents the lowest cell viability % that can be achieved by the compound treatment in the assay.

The target of data set [2] is HiBiT tagged CK1α (Homo sapiens, UniProt P48729+Q96SW2). Nature of the data set: CK1α degradation assay (HiBiT assay). In kind it is cell-based. The conditions noted are these: 20 hours; for Dmax: HT-1080, HT-1080 cells; for DC50: concentration at 50% CK1α degradation. In outline: (§2)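 HT-1080 cells stably expressing wild-type CRBN, GSPT1A(1-138)/G575N and HiBiT-tagged CK1α or GSPT1, ~10,000/well, treated with compound from 3.162×10^-4 μM to 10 μM (3.16-fold steps). HiBiT luminescence normalized to DMSO as percent of control.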
Chain of HiBiT tagged CK1α (P48729 whole entry): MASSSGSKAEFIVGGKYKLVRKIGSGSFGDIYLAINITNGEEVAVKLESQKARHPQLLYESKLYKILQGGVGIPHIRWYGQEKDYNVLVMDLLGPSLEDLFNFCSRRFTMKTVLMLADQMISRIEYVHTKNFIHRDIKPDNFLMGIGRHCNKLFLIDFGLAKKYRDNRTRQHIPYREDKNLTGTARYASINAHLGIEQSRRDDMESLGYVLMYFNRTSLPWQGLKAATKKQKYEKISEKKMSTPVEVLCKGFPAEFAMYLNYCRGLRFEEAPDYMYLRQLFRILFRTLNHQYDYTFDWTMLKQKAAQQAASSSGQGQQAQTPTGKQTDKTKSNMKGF
Chain of HiBiT tagged CK1α (Q96SW2 whole entry): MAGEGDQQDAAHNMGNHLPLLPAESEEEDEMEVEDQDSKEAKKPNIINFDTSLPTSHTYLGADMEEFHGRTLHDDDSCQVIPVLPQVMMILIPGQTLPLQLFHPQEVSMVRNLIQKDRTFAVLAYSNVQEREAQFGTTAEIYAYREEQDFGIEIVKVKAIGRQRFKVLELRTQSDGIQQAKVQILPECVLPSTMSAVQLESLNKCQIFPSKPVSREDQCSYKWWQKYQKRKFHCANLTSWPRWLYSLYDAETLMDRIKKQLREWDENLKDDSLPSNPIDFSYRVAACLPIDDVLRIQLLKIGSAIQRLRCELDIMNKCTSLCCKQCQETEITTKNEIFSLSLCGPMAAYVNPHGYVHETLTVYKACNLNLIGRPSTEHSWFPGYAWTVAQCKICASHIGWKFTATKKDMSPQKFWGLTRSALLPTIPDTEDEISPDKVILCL
Chain of HiBiT tagged CK1α (Q16531 whole entry partner): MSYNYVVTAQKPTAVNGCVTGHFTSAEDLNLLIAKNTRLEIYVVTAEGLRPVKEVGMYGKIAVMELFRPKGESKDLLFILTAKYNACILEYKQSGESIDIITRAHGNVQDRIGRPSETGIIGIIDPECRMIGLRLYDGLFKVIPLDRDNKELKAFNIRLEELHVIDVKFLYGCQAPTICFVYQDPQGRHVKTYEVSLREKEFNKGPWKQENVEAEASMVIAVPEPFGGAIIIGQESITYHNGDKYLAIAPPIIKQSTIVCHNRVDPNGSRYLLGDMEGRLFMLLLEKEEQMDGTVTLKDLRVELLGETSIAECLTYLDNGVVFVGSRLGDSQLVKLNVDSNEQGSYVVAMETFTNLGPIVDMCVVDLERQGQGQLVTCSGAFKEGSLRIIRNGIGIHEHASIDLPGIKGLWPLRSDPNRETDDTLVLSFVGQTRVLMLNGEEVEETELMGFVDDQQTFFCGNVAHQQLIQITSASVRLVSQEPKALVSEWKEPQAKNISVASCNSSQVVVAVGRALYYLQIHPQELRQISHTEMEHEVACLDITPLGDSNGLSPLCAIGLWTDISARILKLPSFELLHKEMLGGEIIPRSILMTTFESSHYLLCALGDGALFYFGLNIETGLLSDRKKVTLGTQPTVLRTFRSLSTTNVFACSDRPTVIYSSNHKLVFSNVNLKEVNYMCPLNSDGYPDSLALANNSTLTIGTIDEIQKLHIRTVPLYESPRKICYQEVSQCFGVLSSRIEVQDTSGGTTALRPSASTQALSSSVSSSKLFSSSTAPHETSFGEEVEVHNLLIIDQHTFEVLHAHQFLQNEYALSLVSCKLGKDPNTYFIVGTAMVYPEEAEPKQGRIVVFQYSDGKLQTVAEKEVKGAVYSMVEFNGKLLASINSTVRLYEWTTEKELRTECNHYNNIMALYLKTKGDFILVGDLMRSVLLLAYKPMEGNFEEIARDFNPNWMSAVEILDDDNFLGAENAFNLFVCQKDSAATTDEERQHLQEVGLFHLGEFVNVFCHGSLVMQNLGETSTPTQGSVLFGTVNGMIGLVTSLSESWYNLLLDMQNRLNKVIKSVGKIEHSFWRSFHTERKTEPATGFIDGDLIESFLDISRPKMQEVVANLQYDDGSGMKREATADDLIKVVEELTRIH
For orientation: HiBiT is a short tag that completes a luciferase, so light tracks the accessible tagged protein.

Data set [3] in a line: Pharmacokinetic study of single intravenous and oral administration in mouse. In kind it is in vivo. The conditions noted are these: for C0 / clearance / half-life / Vd / AUC(0-inf) / Cmax / Tmax: plasma; for Vd: read-out: Vss. On the procedure: The pharmacokinetic study of single intravenous and oral administration in mouse Sample collection and preparation: After intravenous injection or oral administration of test compounds, blood samples were collected and the blood collection time was recorded. After the blood sample was collected, it was immediately transferred into a labeled centrifuge tube containing K2-EDTA, followed by centrifugation and plasma collection. The plasma was then transferred into a pre-cooled centrifuge tube, quickly frozen on dry ice, and stored in an ultra-low temperature refrigerator at −70±10° C. until the LC-MS/MS analysis was performed.
Pharmacokinetic data analysis: The pharmacokinetic software was used to process the plasma drug concentration data of the compound in a non-compartmental model. The peak concentration (Cmax), peak time (Tmax) and quantifiable end time can be directly obtained from the plasma concentration-time diagram. The log-linear trapezoidal method was used to calculate the following pharmacokinetic parameters: half-life (T1/2), apparent volume of distribution (Vdss) and clearance (Cl), and the area under the time-plasma concentration curve (AUC0-inf) from the 0 point to the end point.

Data set [4] concerns the target HiBiT tagged GSPT1 (Homo sapiens, UniProt P15170+Q96SW2). Nature of the data set: GSPT1 degradation assay (HiBiT assay). It is filed as cell-based. The conditions noted are these: 20 hours, maximum GSPT1 degradation; for Dmax: HT-1080, HT-1080 cells. In outline:
as §2

Data set [5] concerns KG-1a cells. The data set can be described thus: KG-1a cell proliferation assay (CTG cell viability, counter screen for GSPT1-mediated cytotoxicity). In kind it is cell-based. The conditions noted are these: 120 hours, lowest cell viability, highest concentration 10 μM.
Source text: (§3) KG-1a Cell Proliferation Assay
(§4) On the other hand, most AML cell lines were reported to be sensitive to GSPT1 degradation induced by CC-885 or CC-90009 regardless of their p53 mutational status (Matyskiela et al., Nature (2016) 535:252-257; Surka et al., Blood (2021) 137 (5): 661-677). Because the subtle to moderate degradation of GSPT1 induced by CK1α degraders with mild activity towards GSPT1 might still result in toxicity in human, a counter screen using an AML cell line harboring p53 mutation such as KG-1a (ATCC Cat #CCL-246.1), was performed to determine the GSPT1-mediated cytotoxicity in vitro.
as §1, with “The following is an example of an assay that can be used to determine the potential GSPT1-dependent cytotoxcity of test compounds that degrade GSPT1. KG-1a cells” for “MV4-11 cells”, “[…]” for “1×10^−3 μM”, “[…]” for “3.162×10^−4 μM”, “with” for “with an”, “EnVision Multimode Plate Reader” for “EnVision plate reader”, “www.collaborativedrug.com). Cell viability reads in compound-treated wells were normalized to that of DMSO control and expressed as Percent of Control (PoC, y). A four Parameter Logistic Model was used to determine the compound's EC50 and DC50, using the following equation: […]” for “www.collaborativedrug.com).”
In general terms: Counterscreens check selectivity or assay interference.

Test in data set [6]: as above
It is filed as cell-based. The conditions noted are these: human, KG-1a cells (AML cell line harboring p53 mutation), lowest cell viability, highest concentration 10 μM, read-out: CTG cell viability assay KG1a: Ymin.
Source text: as §3, §4
as §1, with “The following is an example of an assay that can be used to determine the potential GSPT1-dependent cytotoxcity of test compounds that degrade GSPT1. KG-1a cells” for “MV4-11 cells”, “[…]” for “1×10^−3 μM”, “[…]” for “3.162×10^−4 μM”, “with” for “with an”, “EnVision Multimode Plate Reader” for “EnVision plate reader”, “www.collaborativedrug.com). Cell viability reads in compound-treated wells were normalized to that of DMSO control and expressed as Percent of Control (PoC, y). A four Parameter Logistic Model was used to determine the compound's EC50 and DC50, using the following equation: […]” for “www.collaborativedrug.com).”

Chain of HiBiT tagged GSPT1 (P15170 whole entry): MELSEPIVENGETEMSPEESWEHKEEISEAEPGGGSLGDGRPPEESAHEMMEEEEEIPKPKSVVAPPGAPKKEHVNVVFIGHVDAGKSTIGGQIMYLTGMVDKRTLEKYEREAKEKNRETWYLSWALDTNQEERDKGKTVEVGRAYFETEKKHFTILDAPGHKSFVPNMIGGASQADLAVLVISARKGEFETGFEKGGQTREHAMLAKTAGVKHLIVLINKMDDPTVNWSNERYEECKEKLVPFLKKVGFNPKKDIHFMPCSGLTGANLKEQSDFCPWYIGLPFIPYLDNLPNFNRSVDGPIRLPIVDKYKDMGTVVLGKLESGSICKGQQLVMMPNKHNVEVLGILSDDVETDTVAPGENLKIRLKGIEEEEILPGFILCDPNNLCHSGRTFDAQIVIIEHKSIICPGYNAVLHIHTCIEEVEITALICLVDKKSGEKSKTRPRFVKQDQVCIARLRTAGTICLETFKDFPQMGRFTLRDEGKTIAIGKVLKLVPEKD
Chain of HiBiT tagged GSPT1 (Q96SW2 whole entry): as the sequence (Q96SW2 whole entry) above
Chain of HiBiT tagged GSPT1 (Q16531 whole entry partner): as the sequence (Q16531 whole entry partner) above

For `O=C1CC[C@H](N2Cc3cc(C(=O)N[C@H](c4ccc(Cl)cn4)C4CCC4)ccc3C2=O)C(=O)N1` (single isomer, unassigned) [Compound 82], the IC50 (as a rule, the concentration at which inhibition is half-maximal) in data set [1] (Homo sapiens) was 60 nM. Also, the Dmax (usually the largest share of the target that was removed) in data set [2] (maximum CK1α degradation) turned out to be 66.3%. In data set [3] (2 mg/kg, IV), the C0 came to 6800 ng/mL; the clearance was 10.5 mL/min/kg; the half-life (as a rule, how long it takes for the measured level to halve) was 1.34 h; the Vd was 0.85 L/kg. Also, in data set [3] (10 mg/kg, PO), the AUC(0-inf) – broadly, the area under the concentration-time curve extrapolated to infinity – stood at 13300 ng·h/mL; the highest level (Cmax) was 6080 ng/mL; the Tmax (usually the time from dosing to the highest level) was 0.67 h; the half-life is 2.03 h. In data set [4], the Dmax is 16.2%.

In the case of `O=C1CCC(N2Cc3cc(C(=O)N[C@H](c4ccc(F)cc4)C4CCC4)ccc3C2=O)C(=O)N1` (stereo in doubt) [Compound 7, N—((*S)-cyclobutyl(4-fluorophenyl)methyl)-2-(2,6-dioxopiperidin-3-yl)-1-oxoisoindoline-5-carboxamide], the IC50 in data set [1] is 112 nM. Besides, the DC50 (commonly the midpoint of the concentration-degradation curve) in data set [2] (HT-1080 cells) came to 81.7 nM. For the same compound, the “HiBiT CK1α: Dmax” value in data set [2] (HT-1080 cells, maximum CK1α degradation) stood at 71.8%. For the same compound, the “CTG cell viability assay KG1a: Ymin” value in data set [5] amounted to 91.7%. Also, the “HiBiT GSPT1: Dmax” value in data set [4] (HT-1080 cells) is listed as 28.6%.

On to `O=C1CCC(N2Cc3cc(C(=O)N[C@H](c4ccc(Cl)cc4)C4CC(F)(F)C4)ccc3C2=O)C(=O)N1` (stereo in doubt) [Compound 35, N-((*S)-(4-chlorophenyl)(3,3-difluorocyclobutyl)methyl)-2-(2,6-dioxopiperidin-3-yl)-1-oxoisoindoline-5-carboxamide], for which, in data set [1] (Homo sapiens), the IC50 is 198 nM. Moreover, the Dmax came to 67% in data set [2] (maximum CK1α degradation) and 14.8% in data set [4]. This compound displayed a DC50 in data set [2] (HT-1080 cells) of 94.7 nM. In data set [6], the viability (usually a read-out of living cells in per cent, often relative to untreated cells) at 120 h, 10 µM was found to be 92.1%.

For the compound `O=C1CCC(N2Cc3cc(C(=O)N[C@H](c4ccc(F)cc4F)C4CCC4)ccc3C2=O)C(=O)N1` (stereo in doubt) [Compound 41, N-((*S)-cyclobutyl(2,4-difluorophenyl)methyl)-2-(2,6-dioxopiperidin-3-yl)-1-oxoisoindoline-5-carboxamide], the IC50 in data set [1] (Homo sapiens) was 115 nM. The same compound yielded a Dmax in data set [2] (maximum CK1α degradation) of 70.5%. Further, the DC50 in data set [2] (HT-1080 cells) stood at 82.4 nM. Besides, in data set [3] (10 mg/kg, PO), the F is listed as 76.8%, the AUC(0-inf) amounted to 5870 ng·h/mL, the Cmax (usually the highest concentration seen after dosing) is 1570 ng/mL and the Tmax was 0.83 h. This compound also had a half-life in data set [3] (10 mg/kg, PO) of 2.72 h. In data set [3] (2 mg/kg, IV), the C0 is 1860 ng/mL, the clearance stood at 23 mL/min/kg, the half-life is 2.84 h and the Vd amounted to 3.2 L/kg. Besides, the Dmax in data set [4] was found to be 24.9%.

As to `O=C1CCC(N2Cc3cc(C(=O)N[C@H](c4ccc(F)cn4)C4(F)CCC4)ccc3C2=O)C(=O)N1` (stereo in doubt) [Compound 86, 2-(2,6-dioxopiperidin-3-yl)-N-((*R)-(1-fluorocyclobutyl)(5-fluoropyridin-2-yl)methyl)-1-oxoisoindoline-5-carboxamide], the IC50 in data set [1] (Homo sapiens) was 142 nM. The Dmax in data set [2] (maximum CK1α degradation) amounted to 63%. This compound yielded a DC50 in data set [2] (HT-1080 cells) of 193 nM. In data set [3] (10 mg/kg, PO), the F was found to be 70.4%, the AUC(0-inf) was 14900 ng·h/mL, the peak concentration (Cmax) turned out to be 5690 ng/mL and the Tmax came to 0.5 h. Also, the half-life in data set [3] (10 mg/kg, PO) is 2.12 h. Besides, in data set [3] (2 mg/kg, IV), the C0 was 4910 ng/mL, the clearance is 7.85 mL/min/kg, the half-life is 3.62 h and the Vd was 0.87 L/kg. For the same compound, in data set [4], the Dmax came out at 18.2%.

With `O=C1CCC(N2Cc3cc(C(=O)NC(c4ccc(F)cc4)C4CC(F)(F)C4)ccc3C2=O)C(=O)N1` (stereo not shown) [Compound 4, N-((3,3-difluorocyclobutyl)(4-fluorophenyl)methyl)-2-(2,6-dioxopiperidin-3-yl)-1-oxoisoindoline-5-carboxamide], in data set [1] (Homo sapiens), the IC50 was 262 nM. For the same compound, the Dmax was found to be 63.4% in data set [2] (maximum CK1α degradation) and 31.1% in data set [4]. This compound also displayed a DC50 in data set [2] (HT-1080 cells) of 183 nM. Moreover, in data set [6], the viability at 120 h, 10 µM came to 90.9%.
